Test results taken from US11629129B2, “Microbiocidal picolinamide derivatives” (SYNGENTA PARTICIPATIONS AG, priority 2018, dated 2023).

Legend:
[1] = test system: Mycosphaerella arachidis (Cercospora arachidicola); assay: Mycosphaerella arachidis (Cercospora arachidicola)/Liquid Culture (Early Leaf Spot); assay type: cell-based; conditions: 200 ppm in the formulation, liquid culture, growth inhibition photometrically 4-5 days after application, compared to untreated control, read-out: disease control
Protocol: (§1) Mycosphaerella arachidis (Cercospora arachidicola)/Liquid Culture (Early Leaf Spot) Conidia of the fungus from cryogenic storage are directly mixed into nutrient broth (PDB potato dextrose broth). After placing a (DMSO) solution of test compound into a microtiter plate (96-well format), the nutrient broth containing the fungal spores is added. The test plates are incubated at 24° C. and the inhibition of growth is determined photometrically 4-5 days after application.

[2] = test system: Botryotinia fuckeliana (Botrvtis cinerea); assay: Botryotinia fuckeliana (Botrvtis cinerea)/Liquid Culture (Gray Mould); assay type: cell-based; conditions: Botrytis cinerea; 200 ppm in the formulation; liquid culture, growth inhibition photometrically 3-4 days after application; compared to untreated control; read-out: disease control
Protocol: as §1, with “Botryotinia fuckeliana (Botrvtis cinerea)/Liquid” for “Mycosphaerella arachidis (Cercospora arachidicola)/Liquid”, “(Gray Mould)” for “(Early Leaf Spot)”, “(Vogels” for “(PDB potato dextrose”, “3-4” for “4-5”

[3] = test system: Mycosphaerella graminicola (Septoria tritici); assay: Mycosphaerella graminicola (Septoria tritici)/Liquid Culture (Septoria Blotch); assay type: cell-based; conditions: Zymoseptoria tritici; 200 ppm in the formulation; liquid culture, growth inhibition photometrically 4 to 5 days after application; compared to untreated control; read-out: disease control
Protocol: as §1, with “graminicola (Septoria tritici)/Liquid” for “arachidis (Cercospora arachidicola)/Liquid”, “(Septoria Blotch)” for “(Early Leaf Spot)”, “4 to 5” for “4-5”

[4] = test system: Monographella nivalis (Microdochium nivale); assay: Monographella nivalis (Microdochium nivale)/Liquid Culture (Foot Rot Cereals); assay type: cell-based; conditions: 200 ppm in the formulation, liquid culture, growth inhibition photometrically 4-5 days after application, compared to untreated control, read-out: disease control
Protocol: as §1, with “Monographella nivalis (Microdochium nivale)/Liquid” for “Mycosphaerella arachidis (Cercospora arachidicola)/Liquid”, “(Foot Rot Cereals)” for “(Early Leaf Spot)”

[5] = test system: Glomerella lagenarium (Colletotrichum lagenarium); assay: Glomerella lagenarium (Colletotrichum lagenarium)/Liquid Culture (Anthracnose); assay type: cell-based; conditions: Colletotrichum orbiculare; 200 ppm in the formulation; liquid culture, growth inhibition photometrically 3 to 4 days after application; compared to untreated control; read-out: disease control
Protocol: as §1, with “Glomerella lagenarium (Colletotrichum lagenarium)/Liquid” for “Mycosphaerella arachidis (Cercospora arachidicola)/Liquid”, “(Anthracnose)” for “(Early Leaf Spot)”, “measured” for “determined”, “3 to 4” for “4-5”

[6] = test system: Puccinia recondita f. sp. tritici; assay: Puccinia recondita f. sp. tritici/Wheat/Leaf Disc Preventative (Brown Rust); assay type: in vivo; conditions: foliar, 200 ppm in the formulation, wheat leaf segments cv. Kanzler, inoculated 1 day after application, assessed 7-9 days after application, compared to untreated, read-out: disease control
Protocol: Puccinia recondita f. sp. tritici/Wheat/Leaf Disc Preventative (Brown Rust) Wheat leaf segments cv. Kanzler are placed on agar in multiwell plates (24-well format) and sprayed with the formulated test compound diluted in water. The leaf disks are inoculated with a spore suspension of the fungus 1 day after application. The inoculated leaf segments are incubated at 19° C. and 75% rh under a light regime of 12 h light/12 h darkness in a climate cabinet and the activity of a compound is assessed as percent disease control compared to untreated when an appropriate level of disease damage appears in untreated check leaf segments (7-9 days after application).

COc1ccnc(C(=O)N[C@@H](C)C(=O)O[C@@H](C)c2cccc(-c3ccccc3)c2)c1O [I.a.001, [(1S)-1-(3-phenylphenyl)ethyl] (2S)-2-[(3-hydroxy-4-methoxy-pyridine-2-carbonyl)amino] propanoate]
≥ 80%: inhibition of growth at 200 ppm [1] | inhibition of growth at 200 ppm [2] | inhibition of growth at 200 ppm [3] | inhibition of growth at 200 ppm [4] | inhibition of growth at 200 ppm [5]

COc1ccnc(C(=O)N[C@@H](C)C(=O)O[C@@H](C)c2ccc(-c3ccc(C(F)(F)F)nc3)cc2)c1O [I.af.001, [(1S)-1-[4-[6-(trifluoromethyl)-3-pyridyl]phenyl]ethyl] (2S)-2-[(3-hydroxy-4-methoxy-pyridine-2-carbonyl)amino] propanoate]
≥ 80%: pest or weed control at 200 ppm [6] | inhibition of growth at 200 ppm [1] | inhibition of growth at 200 ppm [3] | inhibition of growth at 200 ppm [4] | inhibition of growth at 200 ppm [5]

COc1ccnc(C(=O)N[C@@H](C)C(=O)O[C@@H](C)c2ccc(-c3cncc(Cl)c3)cc2)c1O [I.ah.001, [(1S)-1-[4-(5-chloro-3-pyridyl)phenyl]ethyl] (2S)-2-[(3-hydroxy-4-methoxy-pyridine-2-carbonyl)amino] propanoate]
≥ 80%: pest or weed control at 200 ppm [6] | inhibition of growth at 200 ppm [1] | inhibition of growth at 200 ppm [3] | inhibition of growth at 200 ppm [4] | inhibition of growth at 200 ppm [5]

COc1ccnc(C(=O)N[C@@H](C)C(=O)O[C@@H](C)c2cccc(Oc3cccc(Cl)c3)c2)c1O [I.ar.001, [(1S)-1-[3-(3-chlorophenoxy)phenyl]ethyl] (2S)-2-[(3-hydroxy-4-methoxy-pyridine-2-carbonyl)amino] propanoate]
≥ 80%: pest or weed control at 200 ppm [6] | inhibition of growth at 200 ppm [1] | inhibition of growth at 200 ppm [3] | inhibition of growth at 200 ppm [5]

COc1ccnc(C(=O)N[C@@H](C)C(=O)O[C@@H](C)c2cccc(Oc3ccc(Cl)cc3)c2)c1O [I.as.001, [(1S)-1-[3-(4-chlorophenoxy)phenyl]ethyl] (2S)-2-[(3-hydroxy-4-methoxy-pyridine-2-carbonyl)amino] propanoate]
≥ 80%: pest or weed control at 200 ppm [6] | inhibition of growth at 200 ppm [1] | inhibition of growth at 200 ppm [2] | inhibition of growth at 200 ppm [3] | inhibition of growth at 200 ppm [5]

COc1ccnc(C(=O)N[C@@H](C)C(=O)O[C@@H](C)c2ccc(Oc3ccccc3)cc2)c1O [I.at.001, [(1S)-1-(4-phenoxyphenyl)ethyl] (2S)-2-[(3-hydroxy-4-methoxy-pyridine-2-carbonyl)amino] propanoate]
≥ 80%: pest or weed control at 200 ppm [6] | inhibition of growth at 200 ppm [1] | inhibition of growth at 200 ppm [3] | inhibition of growth at 200 ppm [4] | inhibition of growth at 200 ppm [5]

COc1ccnc(C(=O)N[C@@H](C)C(=O)O[C@@H](C)c2ccc(Oc3cccc(Cl)c3)cc2)c1O [I.au.001, [(1S)-1-[4-(3-chlorophenoxy)phenyl]ethyl] (2S)-2-[(3-hydroxy-4-methoxy-pyridine-2-carbonyl)amino] propanoate]
≥ 80%: pest or weed control at 200 ppm [6] | inhibition of growth at 200 ppm [1] | inhibition of growth at 200 ppm [3] | inhibition of growth at 200 ppm [4] | inhibition of growth at 200 ppm [5]

COc1ccnc(C(=O)N[C@@H](C)C(=O)O[C@@H](C)c2ccc(Oc3ccc(Cl)cc3)cc2)c1O [I.av.001, [(1S)-1-[4-(4-chlorophenoxy)phenyl]ethyl] (2S)-2-[(3-hydroxy-4-methoxy-pyridine-2-carbonyl)amino] propanoate]
≥ 80%: pest or weed control at 200 ppm [6] | inhibition of growth at 200 ppm [1] | inhibition of growth at 200 ppm [3] | inhibition of growth at 200 ppm [4] | inhibition of growth at 200 ppm [5]

COc1ccnc(C(=O)N[C@@H](C)C(=O)O[C@@H](C)c2cccc(-c3ccccc3Cl)c2)c1O [I.b.001, [(1S)-1-[3-(2-chlorophenyl)phenyl]ethyl] (2S)-2-[(3-hydroxy-4-methoxy-pyridine-2-carbonyl)amino] propanoate]
≥ 80%: pest or weed control at 200 ppm [6] | inhibition of growth at 200 ppm [1] | inhibition of growth at 200 ppm [2] | inhibition of growth at 200 ppm [3] | inhibition of growth at 200 ppm [4]

COc1ccnc(C(=O)N[C@@H](C)C(=O)O[C@@H](C)c2ccc(-c3cscc3C)cc2)c1O [I.bb.001, [(1S)-1-[4-(4-methyl-3-thienyl)phneyl]ethyl] (2S)-2-[(3-hydroxy-4-methoxy-pyridine-2-carbonyl)amino] propanoate]
≥ 80%: pest or weed control at 200 ppm [6] | inhibition of growth at 200 ppm [1] | inhibition of growth at 200 ppm [3] | inhibition of growth at 200 ppm [4] | inhibition of growth at 200 ppm [5]

COc1ccnc(C(=O)N[C@@H](C)C(=O)O[C@@H](C)c2ccc(-c3ccccc3)cc2)c1O [I.d.001, [(1S)-1-(4-phenylphenyl)ethyl] (2S)-2-[(3-hydroxy-4-methoxy-pyridine-2-carbonyl)amino] propanoate]
≥ 80%: pest or weed control at 200 ppm [6] | inhibition of growth at 200 ppm [1] | inhibition of growth at 200 ppm [2] | inhibition of growth at 200 ppm [3] | inhibition of growth at 200 ppm [4] | inhibition of growth at 200 ppm [5]

COc1ccnc(C(=O)N[C@@H](C)C(=O)O[C@@H](C)c2ccc(-c3ccccc3)c(F)c2)c1O [I.e.001, [(1S)-1-(3-fluoro-4-phenyl-phenyl)ethyl] (2S)-2-[(3-hydroxy-4-methoxy-pyridine-2-carbonyl)amino] propanoate]
≥ 80%: pest or weed control at 200 ppm [6] | inhibition of growth at 200 ppm [1] | inhibition of growth at 200 ppm [2] | inhibition of growth at 200 ppm [3] | inhibition of growth at 200 ppm [4] | inhibition of growth at 200 ppm [5]

COc1ccnc(C(=O)N[C@@H](C)C(=O)O[C@@H](C)c2ccc(-c3ccccc3C(C)C)cc2)c1O [I.j.001, [(1S)-1-[4-(2-isopropylphenyl)phenyl]ethyl] (2S)-2-[(3-hydroxy-4-methoxy-pyridine-2-carbonyl)amino] propanoate]
≥ 80%: pest or weed control at 200 ppm [6] | inhibition of growth at 200 ppm [1] | inhibition of growth at 200 ppm [3] | inhibition of growth at 200 ppm [4] | inhibition of growth at 200 ppm [5]

COc1ccnc(C(=O)N[C@@H](C)C(=O)O[C@@H](C)c2ccc(-c3cc(C)ccc3C)cc2)c1O [I.p.001, [(1S)-1-[4-(2,5-dimethylphenyl)phenyl]ethyl] (2S)-2-[(3-hydroxy-4-methoxy-pyridine-2-carbonyl)amino] propanoate]
≥ 80%: pest or weed control at 200 ppm [6] | inhibition of growth at 200 ppm [1] | inhibition of growth at 200 ppm [2] | inhibition of growth at 200 ppm [3] | inhibition of growth at 200 ppm [5]

COc1ccnc(C(=O)N[C@@H](C)C(=O)O[C@@H](C)c2ccc(-c3ccc(Cl)c(C)c3)cc2)c1O [I.y.001, [(1S)-1-[4-(4-chloro-3-methyl-phenyl)phenyl]ethyl] (2S)-2-[(3-hydroxy-4-methoxy-pyridine-2-carbonyl)amino] propanoate]
≥ 80%: pest or weed control at 200 ppm [6] | inhibition of growth at 200 ppm [1] | inhibition of growth at 200 ppm [3] | inhibition of growth at 200 ppm [5]

COc1ccnc(C(=O)N[C@@H](C)C(=O)O[C@@H](C)c2ccc(-c3cccc4ccccc34)cc2)c1O [I.z.001, [(1S)-1-[4-(1-naphthyl)phenyl]ethyl] (2S)-2-[(3-hydroxy-4-methoxy-pyridine-2-carbonyl)amino] propanoate]
≥ 80%: pest or weed control at 200 ppm [6] | inhibition of growth at 200 ppm [1] | inhibition of growth at 200 ppm [2] | inhibition of growth at 200 ppm [3] | inhibition of growth at 200 ppm [5]
